Molecular target: Neuronal acetylcholine receptor subunit alpha-7 (Homo sapiens, UniProt P36544)
Test: Positive allosteric modulation of human alpha 7 nAChR expressed in HEK cells co-expressing human RIC3 assessed as increase in acetylcholine-induced channel current at holding potential of -60 mV incubated for 58 secs followed by acetylcholine treatment for 1 sec by patch clamp electrophysiology assay
Type: cell-based

Neuronal acetylcholine receptor subunit alpha-7, sequence (P36544 whole entry): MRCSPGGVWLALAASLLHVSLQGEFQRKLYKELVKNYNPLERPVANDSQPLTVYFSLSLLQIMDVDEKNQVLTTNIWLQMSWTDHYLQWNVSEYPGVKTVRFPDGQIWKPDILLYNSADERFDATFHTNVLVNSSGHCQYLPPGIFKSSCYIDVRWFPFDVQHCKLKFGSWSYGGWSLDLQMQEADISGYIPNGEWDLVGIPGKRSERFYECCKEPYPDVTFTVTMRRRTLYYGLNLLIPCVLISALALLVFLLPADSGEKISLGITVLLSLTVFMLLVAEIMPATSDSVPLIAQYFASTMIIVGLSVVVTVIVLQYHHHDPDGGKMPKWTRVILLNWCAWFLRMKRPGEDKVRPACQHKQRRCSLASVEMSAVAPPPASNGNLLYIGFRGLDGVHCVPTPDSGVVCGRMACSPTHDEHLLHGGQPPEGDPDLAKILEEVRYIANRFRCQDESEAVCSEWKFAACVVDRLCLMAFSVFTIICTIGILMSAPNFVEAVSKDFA

Compound	EC50
CC1(C)[C@@H](c2ccc(S(N)(=O)=O)cc2)[C@@H]1c1noc(-c2ccc(F)cc2)n1	0.093 µM
CC1(C)[C@@H](c2ccc(S(N)(=O)=O)cc2)[C@@H]1c1noc(C2CC(F)(F)C2)n1	0.098 µM
CC(Oc1cccc(Cl)c1)c1nc([C@H]2[C@H](c3ccc(S(N)(=O)=O)cc3)C2(C)C)no1 (stereo not given in full)	0.093 µM

Stronger by EC50, values ahead:

EC50	Compound
0.083 µM	NS(=O)(=O)c1ccc([C@H]2[C@H](c3noc(-c4ccccc4)n3)C2(F)F)cc1
0.069 µM	CC1(C)[C@@H](c2ccc(S(N)(=O)=O)cc2)[C@@H]1c1noc(C2CCCC2)n1
